#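 Where inhibition never reached the appropriate level, the endpoint shown equals the highest concentration tested. Otherwise, values were interpolated linearly from a five-concentration, 48-hour dose response in 96-well plates. GI50: concentration for 50% inhibition of growth. TGI: total growth inhibition.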
# How the values were obtained:
# Assay in all cases: NCI-60 cell line screen, 48 h
# 786-0 renal = test system: 786-0 renal
# KM12 colon = test system: KM12 colon
# MDA-MB-468 breast = test system: MDA-MB-468 breast
# A549 NSCLC = test system: A549 NSCLC
# RXF 393 renal = test system: RXF 393 renal
# HOP-62 NSCLC = test system: HOP-62 NSCLC
# OVCAR-5 ovarian = test system: OVCAR-5 ovarian
# K-562 leukemia = test system: K-562 leukemia
# ACHN renal = test system: ACHN renal
# OVCAR-8 ovarian = test system: OVCAR-8 ovarian
# UO-31 renal = test system: UO-31 renal
# HCT-15 colon = test system: HCT-15 colon
# LOX IMVI melanoma = test system: LOX IMVI melanoma
# TK-10 renal = test system: TK-10 renal
# SK-MEL-5 melanoma = test system: SK-MEL-5 melanoma
# NCI-H460 lung = test system: NCI-H460 lung
# U251 CNS = test system: U251 CNS
# OVCAR-3 ovarian = test system: OVCAR-3 ovarian
# SK-MEL-2 melanoma = test system: SK-MEL-2 melanoma
# SNB-75 CNS = test system: SNB-75 CNS
# HCC-2998 colon = test system: HCC-2998 colon
# MDA-MB-231 breast = test system: MDA-MB-231 breast
# NCI/ADR-RES ovarian = test system: NCI/ADR-RES ovarian
# A498 renal = test system: A498 renal
# IGROV1 ovarian = test system: IGROV1 ovarian
# HOP-92 NSCLC = test system: HOP-92 NSCLC
# EKVX NSCLC = test system: EKVX NSCLC
# SN12C renal = test system: SN12C renal
# T-47D breast = test system: T-47D breast
# COLO 205 colon = test system: COLO 205 colon
structure (smiles),measurement,setting,value
C#CCN(C)CCCOc1ccc(N(C)C(=O)c2cc(C(C)C)c(O)cc2O)cc1Cl,TGI,786-0 renal,18.7 µM
same,GI50,KM12 colon,0.105 µM
same,TGI,KM12 colon,10.9 µM
same,GI50,MDA-MB-468 breast,0.0962 µM
same,TGI,MDA-MB-468 breast,0.462 µM
same,GI50,A549 NSCLC,0.188 µM
same,TGI,A549 NSCLC,15.4 µM
same,GI50,RXF 393 renal,0.685 µM
same,TGI,RXF 393 renal,13.8 µM
same,GI50,HOP-62 NSCLC,0.249 µM
same,TGI,HOP-62 NSCLC,19.6 µM
same,GI50,OVCAR-5 ovarian,0.477 µM
same,TGI,OVCAR-5 ovarian,16 µM
same,GI50,K-562 leukemia,0.0788 µM
same,TGI,K-562 leukemia,19.4 µM
same,GI50,ACHN renal,0.0963 µM
same,TGI,ACHN renal,13.5 µM
same,GI50,OVCAR-8 ovarian,0.202 µM
same,TGI,OVCAR-8 ovarian,21 µM
same,GI50,UO-31 renal,0.148 µM
same,TGI,UO-31 renal,14.2 µM
same,GI50,HCT-15 colon,0.0827 µM
same,TGI,HCT-15 colon,12.7 µM
same,GI50,LOX IMVI melanoma,0.129 µM
same,TGI,LOX IMVI melanoma,0.303 µM
same,GI50,TK-10 renal,0.323 µM
same,TGI,TK-10 renal,16.8 µM
same,GI50,SK-MEL-5 melanoma,0.357 µM
same,TGI,SK-MEL-5 melanoma,2.02 µM
same,GI50,NCI-H460 lung,0.0679 µM
same,TGI,NCI-H460 lung,10.9 µM
same,GI50,U251 CNS,0.283 µM
same,TGI,U251 CNS,16 µM
same,GI50,OVCAR-3 ovarian,0.509 µM
same,TGI,OVCAR-3 ovarian,16.8 µM
same,GI50,SK-MEL-2 melanoma,1.72 µM
same,TGI,SK-MEL-2 melanoma,18.6 µM
same,GI50,SNB-75 CNS,0.977 µM
same,TGI,SNB-75 CNS,17.8 µM
same,GI50,HCC-2998 colon,0.224 µM
same,TGI,HCC-2998 colon,2.04 µM
same,GI50,MDA-MB-231 breast,0.213 µM
same,TGI,MDA-MB-231 breast,10.9 µM
same,GI50,NCI/ADR-RES ovarian,0.305 µM
same,TGI,NCI/ADR-RES ovarian,8.93 µM
same,GI50,A498 renal,0.642 µM
same,TGI,A498 renal,16.5 µM
same,GI50,IGROV1 ovarian,0.172 µM
same,TGI,IGROV1 ovarian,14.7 µM
same,GI50,HOP-92 NSCLC,0.328 µM
same,TGI,HOP-92 NSCLC,3.59 µM
same,GI50,EKVX NSCLC,0.526 µM
same,TGI,EKVX NSCLC,12.7 µM
same,GI50,SN12C renal,0.0925 µM
same,TGI,SN12C renal,14.2 µM
same,GI50,T-47D breast,0.0853 µM
same,TGI,T-47D breast,13.5 µM
same,GI50,COLO 205 colon,2.83 µM
same,TGI,COLO 205 colon,12.5 µM

# — PubChem BioAssay (NCI)
